Consider 35 compounds from ChEMBL document CHEMBL1201862, “PubChem BioAssay data set” (2004).

Active and inactive are the calls of the source.

One assay concerns the target T1, Protein skinhead-1 (Caenorhabditis elegans, UniProt P34707).
T1 sequence (P34707 whole entry): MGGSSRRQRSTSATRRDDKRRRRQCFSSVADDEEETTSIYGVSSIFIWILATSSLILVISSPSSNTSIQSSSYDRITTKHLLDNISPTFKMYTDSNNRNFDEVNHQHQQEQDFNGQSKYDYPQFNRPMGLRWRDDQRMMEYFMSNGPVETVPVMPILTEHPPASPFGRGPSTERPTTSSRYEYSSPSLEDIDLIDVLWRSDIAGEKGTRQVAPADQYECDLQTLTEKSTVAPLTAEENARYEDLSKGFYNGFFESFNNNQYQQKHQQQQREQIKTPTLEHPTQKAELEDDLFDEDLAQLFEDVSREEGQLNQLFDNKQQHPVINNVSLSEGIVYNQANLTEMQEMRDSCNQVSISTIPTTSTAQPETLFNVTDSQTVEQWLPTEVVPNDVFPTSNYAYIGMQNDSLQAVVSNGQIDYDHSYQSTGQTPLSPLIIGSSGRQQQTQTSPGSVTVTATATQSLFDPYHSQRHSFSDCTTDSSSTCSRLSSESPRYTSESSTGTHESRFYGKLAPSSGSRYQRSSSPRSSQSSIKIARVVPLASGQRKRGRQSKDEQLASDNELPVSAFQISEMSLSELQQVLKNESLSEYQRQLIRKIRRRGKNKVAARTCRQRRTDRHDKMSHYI
In kind it is functional.

The target in assay [1] is T2, Replicative DNA helicase DnaB (Mycobacterium tuberculosis, UniProt P9WMR3).
T2 sequence (P9WMR3 whole entry): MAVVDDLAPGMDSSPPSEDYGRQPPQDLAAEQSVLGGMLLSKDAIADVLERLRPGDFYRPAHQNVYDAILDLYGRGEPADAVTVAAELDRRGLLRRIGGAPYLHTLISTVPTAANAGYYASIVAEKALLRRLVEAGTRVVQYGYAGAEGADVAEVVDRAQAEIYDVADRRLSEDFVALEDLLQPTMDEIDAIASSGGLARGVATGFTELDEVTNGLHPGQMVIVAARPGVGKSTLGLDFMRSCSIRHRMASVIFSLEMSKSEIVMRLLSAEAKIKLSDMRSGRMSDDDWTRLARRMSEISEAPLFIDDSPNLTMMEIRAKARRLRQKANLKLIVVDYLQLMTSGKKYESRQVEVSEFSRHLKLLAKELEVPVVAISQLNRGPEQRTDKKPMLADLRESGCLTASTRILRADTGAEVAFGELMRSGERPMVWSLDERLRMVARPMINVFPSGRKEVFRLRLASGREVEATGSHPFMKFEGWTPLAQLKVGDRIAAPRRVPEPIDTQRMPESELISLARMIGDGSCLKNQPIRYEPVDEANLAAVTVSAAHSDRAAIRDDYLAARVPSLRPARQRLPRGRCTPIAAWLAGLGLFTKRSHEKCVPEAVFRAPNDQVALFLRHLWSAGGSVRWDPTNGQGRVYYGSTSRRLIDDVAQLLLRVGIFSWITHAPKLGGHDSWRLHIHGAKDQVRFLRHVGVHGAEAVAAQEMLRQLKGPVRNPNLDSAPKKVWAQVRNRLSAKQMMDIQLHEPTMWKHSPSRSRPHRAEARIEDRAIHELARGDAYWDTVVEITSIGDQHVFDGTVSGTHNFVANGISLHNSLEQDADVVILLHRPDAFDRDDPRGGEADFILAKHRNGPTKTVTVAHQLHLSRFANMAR
Put plainly: DnaB intein splicing inhibitors, dose response, biochemical, cell-free fluorescence (AID 449749). Format: functional.

Another assay concerns the target T3, Protein RecA (Mycobacterium tuberculosis, UniProt P9WHJ3).
T3 sequence (P9WHJ3 whole entry): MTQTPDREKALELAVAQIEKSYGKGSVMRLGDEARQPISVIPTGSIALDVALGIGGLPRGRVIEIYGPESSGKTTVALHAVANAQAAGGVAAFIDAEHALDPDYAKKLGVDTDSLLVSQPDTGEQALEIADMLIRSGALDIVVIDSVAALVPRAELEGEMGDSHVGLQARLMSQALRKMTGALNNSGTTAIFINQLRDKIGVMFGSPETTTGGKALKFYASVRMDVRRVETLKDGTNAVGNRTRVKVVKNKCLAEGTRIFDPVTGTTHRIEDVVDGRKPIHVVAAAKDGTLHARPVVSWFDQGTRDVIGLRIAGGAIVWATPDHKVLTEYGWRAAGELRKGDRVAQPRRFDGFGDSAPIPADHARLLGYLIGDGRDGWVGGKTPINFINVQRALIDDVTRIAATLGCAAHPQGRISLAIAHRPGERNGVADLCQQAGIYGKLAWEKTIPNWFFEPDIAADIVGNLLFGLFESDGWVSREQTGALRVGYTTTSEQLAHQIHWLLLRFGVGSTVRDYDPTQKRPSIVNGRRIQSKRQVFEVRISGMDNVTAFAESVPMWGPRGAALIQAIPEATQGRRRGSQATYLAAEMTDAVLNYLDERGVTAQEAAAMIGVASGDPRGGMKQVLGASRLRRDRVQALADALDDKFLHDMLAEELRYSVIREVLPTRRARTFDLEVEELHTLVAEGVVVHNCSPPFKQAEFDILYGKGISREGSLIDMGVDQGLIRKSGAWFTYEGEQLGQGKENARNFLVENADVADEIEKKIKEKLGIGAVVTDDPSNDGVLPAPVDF
In words: Fluorescence Cell-Free Homogeneous Dose Retest to Identify Inhibitors of RecA-Intein Splicing Activity. [Related pubchem assays (depositor defined):AID2097, AID2223, AID489010, AID492950]. In kind it is functional.

The next assay concerns H9c2. In words: cells. Format: functional, cell-based. The following applies: Rattus norvegicus, H9c2, Myocardium.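 Note: confirmatory concentration-response retest of ultra-high-throughput screening hits for modulation of myocardial damage; cell death induced by hydrogen peroxide oxidative stress; compound pretreatment for 60 min then peroxide exposure for 2 h; potency is for protecting the cells against peroxide damage rather than for killing them.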
The target in assay [2] is T4, Rac GTPase-activating protein 1 (Homo sapiens, UniProt Q9H0H5).
T4 sequence (Q9H0H5 whole entry): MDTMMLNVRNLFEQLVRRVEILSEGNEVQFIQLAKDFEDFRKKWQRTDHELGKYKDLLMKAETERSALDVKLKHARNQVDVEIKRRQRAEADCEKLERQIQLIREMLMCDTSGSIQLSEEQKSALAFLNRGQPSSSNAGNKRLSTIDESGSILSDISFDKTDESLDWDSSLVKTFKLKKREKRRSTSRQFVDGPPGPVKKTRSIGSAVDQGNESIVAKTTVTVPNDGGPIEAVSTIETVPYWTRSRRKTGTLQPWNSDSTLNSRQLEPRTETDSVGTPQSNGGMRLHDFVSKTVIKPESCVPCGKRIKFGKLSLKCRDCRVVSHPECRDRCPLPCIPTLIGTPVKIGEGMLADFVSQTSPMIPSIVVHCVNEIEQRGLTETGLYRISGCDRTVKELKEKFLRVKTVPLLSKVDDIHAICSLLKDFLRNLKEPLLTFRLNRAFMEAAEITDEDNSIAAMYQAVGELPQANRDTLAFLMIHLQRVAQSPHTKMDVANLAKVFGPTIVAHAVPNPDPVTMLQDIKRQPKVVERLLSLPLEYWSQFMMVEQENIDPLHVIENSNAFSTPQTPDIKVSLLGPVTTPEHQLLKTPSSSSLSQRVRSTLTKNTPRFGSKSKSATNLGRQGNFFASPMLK
In words: MgcRacGAP GTPase-activating activity inhibitors, confirmation, biochemical, ADP Hunter fluorescence, primary and confirmatory (AID 624330). Format: functional.

The target of another assay is Cytochrome P450 2C9 (Homo sapiens, UniProt P11712).
Sequence of Cytochrome P450 2C9 (P11712 whole entry): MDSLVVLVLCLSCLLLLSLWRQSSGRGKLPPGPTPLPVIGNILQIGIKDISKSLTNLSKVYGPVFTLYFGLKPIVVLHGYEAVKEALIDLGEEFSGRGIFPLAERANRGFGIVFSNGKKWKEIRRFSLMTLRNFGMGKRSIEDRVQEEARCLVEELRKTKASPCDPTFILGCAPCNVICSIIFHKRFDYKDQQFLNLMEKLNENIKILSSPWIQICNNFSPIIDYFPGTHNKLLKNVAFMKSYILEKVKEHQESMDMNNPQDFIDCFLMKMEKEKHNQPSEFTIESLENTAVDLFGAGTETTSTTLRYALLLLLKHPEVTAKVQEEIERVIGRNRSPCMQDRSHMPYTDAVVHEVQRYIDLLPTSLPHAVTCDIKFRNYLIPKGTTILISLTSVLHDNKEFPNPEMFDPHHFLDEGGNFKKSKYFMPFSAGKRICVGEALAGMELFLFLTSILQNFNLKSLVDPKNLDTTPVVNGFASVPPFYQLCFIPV
For another assay, the target named is Cytochrome P450 3A4 (Homo sapiens, UniProt P08684).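 Note: CYP3A4 tested as one member of a cytochrome P450 panel screen.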
Sequence of Cytochrome P450 3A4 (P08684 whole entry, the tested form may be a part): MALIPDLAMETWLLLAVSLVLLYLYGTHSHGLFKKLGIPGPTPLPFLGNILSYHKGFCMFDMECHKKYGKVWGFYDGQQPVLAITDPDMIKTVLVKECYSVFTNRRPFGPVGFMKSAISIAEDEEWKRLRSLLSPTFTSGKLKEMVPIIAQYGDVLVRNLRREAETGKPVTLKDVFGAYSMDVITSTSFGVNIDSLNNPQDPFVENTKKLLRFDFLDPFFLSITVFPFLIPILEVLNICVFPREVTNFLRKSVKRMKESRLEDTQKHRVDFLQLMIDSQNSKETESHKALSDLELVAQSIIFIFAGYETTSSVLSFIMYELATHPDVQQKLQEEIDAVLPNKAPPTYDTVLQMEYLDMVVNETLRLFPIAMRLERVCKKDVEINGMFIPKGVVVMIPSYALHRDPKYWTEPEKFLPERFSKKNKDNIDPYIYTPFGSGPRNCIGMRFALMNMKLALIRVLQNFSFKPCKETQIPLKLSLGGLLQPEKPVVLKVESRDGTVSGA
Assay [3] can be described thus: ZM109 Env clade C HIV-1 fusion inhibitors, dose response, HeLa effector, CEM target cells, luciferase, cherry-pick (AID 652058). In kind it is functional, cell-based.
A short description of assay [4]: inhibitors of clade B AD8 Env fusion, dose response, cell-based, cherry-pick (AID 652062).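 Note: luciferase signal from cell-cell fusion driven by HIV-1 clade B AD8 Env; potency is for inhibitors of fusion seen as a drop in luminescence.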 Format: functional.
Assay [5] is described as follows: inhibitors of HIV Env-driven cell fusion, dose response, cherry-pick (AID 652057). In kind it is functional, cell-based.

With `CCN(CC)CCN1C(=O)C(O)=C(C(=O)c2cnn(-c3ccccc3)c2C)C1c1ccc(C)o1` (stereo not given), the IC50 (usually the concentration needed to halve the response being measured) at Protein skinhead-1 is > 100 µM (inactive).
As to `O=[N+]([O-])c1ccc(Oc2ccc(F)cc2)c2ccncc12`, the AC50 (in general, the midpoint of the concentration-response curve, whichever way the signal moves) in [1] is > 380 µM (inactive). Besides, the IC50 at Protein skinhead-1 was > 100 µM (inactive). The concentration giving a half-maximal response (EC50) (usually the concentration needed to bring the measured effect to its halfway point) on Protein RecA was 1.4 µM (active).
With `COc1ccc(S(=O)(=O)N2CC(O)CC2C(=O)OCc2nc(O)c3c(C)c(C)sc3n2)cc1` (stereo not given), in the assay with H9c2, the IC50 was 31 µM (inactive).
As to `O=C(CCCCCNC(=O)c1ccccc1)N/N=C/c1ccc(O)cc1O`, the concentration for half-maximal inhibition (IC50) in assay [2] is 69.9 µM (active).
On the same count and under the same terms, for `O=C1CC(Nc2ccc(N3CCOCC3)cc2)C(=O)N1Cc1ccccc1` (stereo not given) the value was 140 µM (active); for `COc1ccc(C=NNC(=O)c2cc(C)oc2C)cc1O`, 107 µM (active); for `Nc1nc(N)c2[nH]c(S)nc2n1`, 163 µM (active).
On to `CCCNCc1cc(Cl)c(OCC)c(Cl)c1`, for which the IC50 on Protein skinhead-1 is > 100 µM (inactive).
For the compound `COc1ccccc1-c1c(C(F)(F)F)oc2cc(OC(=O)c3cccc([N+](=O)[O-])c3C)ccc2c1=O`, the concentration at half-maximal activity (AC50) at Cytochrome P450 2C9 was 0.447 µM (inconclusive); at Cytochrome P450 3A4 it was 12.6 µM (inconclusive). On Protein skinhead-1, the IC50 is > 100 µM (inactive).
On to `Cc1ccc(C(=O)Nc2cccc(C(F)(F)F)c2)cc1NC(=O)c1csc(-c2ccncc2)n1`, for which the IC50 in the assay on H9c2 is > 79 µM (inactive).
Take `O=C(Nc1cc(C(F)(F)F)ccc1N1CCCCC1)C1=COCCO1`: the IC50 at Protein skinhead-1 is > 100 µM (inactive).
As to `CCOc1cccc2cc(C(=O)N3CCc4ccccc43)c(=O)oc12`, the IC50 at Protein skinhead-1 was > 100 µM (inactive).
With `Cc1cccc(NC(=O)c2[nH]cnc2C(=O)NCCCCNC(=O)c2nc[nH]c2C(=O)Nc2cccc(C)c2)c1`, the IC50 with H9c2 was > 79 µM (inactive).
As to `c1ccc(OCc2nc(-c3cccs3)no2)cc1`, the half-inhibitory concentration (IC50) at Protein skinhead-1 was 31.5 µM (active).
As for `Cn1c(=O)[nH]c(=O)c2c1nc(NCCc1ccccc1)n2CC(O)COc1ccccc1` (stereo not given), the IC50 in the assay with H9c2 is > 79 µM (inactive).
For `COc1ccc(NC2CCCN(C(=O)CSc3ccccc3)C2)cc1OC` (stereo not given), the half-maximal inhibitory concentration (IC50) in assay [2] was 60 µM (active).
Take `COc1ccc(NC(=O)COc2cccc3c2CCNC3=O)cc1`: the IC50 with H9c2 was > 79 µM (inactive).
Still for that read-out and setting: for `CC(C)(C)OC(=O)CNC(=O)c1[nH]cnc1C(=O)Nc1ccc(CNC(=O)OC(C)(C)C)cc1` the value was > 79 µM (inactive); for `COC(=O)c1ccc(CSc2ccc3nnc(-c4cccc(F)c4)n3n2)o1`, > 79 µM (inactive).
Take `CCOC(=O)C1CCCN(Cc2nc(N)nc(Nc3ccc(OC)cc3)n2)C1` (stereo not given): the AC50 in assay [3] is 4.93 µM (active); in assay [4], 27 µM (active).
Regarding `C[C@H](CO)N1C[C@H](C)[C@@H](CN(C)S(=O)(=O)c2cccs2)Oc2ccc(NC(=O)Nc3ccccc3)cc2C1=O`, the 50% inhibitory concentration (IC50) in the assay with H9c2 is 11.9 µM (active).
With `Cc1cc(C)n2c(SCc3c(C)noc3C)nnc2n1`, the IC50 at Protein skinhead-1 is > 100 µM (inactive).
On the same count and under the same terms, the figure for `Clc1ccc(-c2nnsc2SCc2ccccc2)cc1` is > 100 µM (inactive).
As to `CCOC(=O)C1CCN(Cc2c[nH]nc2-c2ccccc2)CC1`, in [2], the IC50 is 131 µM (active).
`CC(C)NC(=O)Nc1ccc2c(c1)C(=O)N([C@@H](C)CO)C[C@H](C)[C@H](CN(C)C(=O)Nc1ccc(F)cc1)O2`: the AC50 in assay [3] is 22.4 µM (active); in assay [4], 58.4 µM (active).
Take `CC(C)CC#Cc1ccc2c(c1)O[C@@H](CN(C)Cc1ccccn1)[C@H](C)CN([C@H](C)CO)S2(=O)=O`: the AC50 in assay [5] is 26.1 µM (active); in [3], 31.9 µM (active); in [4], 26 µM (active).
Regarding `Cc1nn(Cc2ccc(C(=O)N3CCN(C(=O)c4ccco4)CC3)o2)c(C)c1[N+](=O)[O-]`, in the assay with H9c2, the half-inhibitory concentration (IC50) is 21.9 µM (active).
The same measure, in the same setting: the figure for `COc1ccc2nc(O)c(CNC3CCCCC3)cc2c1` is 46.3 µM (inactive).
For `O=C(NCC(=O)N(Cc1cccs1)C(C(=O)NC1CCCCC1)c1ccncc1)c1ccco1` (stereo not given), the IC50 at Protein skinhead-1 was > 100 µM (inactive).
Same read-out and setting: for `Fc1ccc(-c2csc(Nc3ccccn3)n2)c(F)c1` the value was > 100 µM (inactive); for `COCCCn1c(SCC(=O)NC(C)C)nnc1-c1ccccc1`, > 100 µM (inactive).
Take `C/C(CC(=O)Nc1cc(C)ccn1)=N\NC(=O)c1ccccc1C`: the AC50 in [1] is 26.8 µM (active). Besides, at Protein RecA, the EC50 is 6.24 µM (active).
`CCn1c(C)c(C2=CCN(S(=O)(=O)c3ccccc3)CC2)c2ccccc21`: on Protein skinhead-1, the IC50 was > 100 µM (inactive).
Turning to `Cc1ccc(C)c(N/C([S-])=C(/C(=O)c2ccc(OC(F)F)cc2)[n+]2ccccc2)c1`, the AC50 in assay [1] is 36.6 µM (active). Also, the EC50 at Protein RecA is 11.5 µM (active).
For `Oc1nnc(-c2cccs2)c2ccccc12`, the half-maximal inhibitory concentration (IC50) with H9c2 is 19.4 µM (active).
